Toxic doses and inconclusive results are not listed. How the source made its calls: active means survival T/C of 150% or more; inactive means T/C below 125% in these data.
Tested on: P388 leukemia ip, CD2F1 mice, survival T/C
Test: NCI In Vivo Anticancer Drug Screen. Data for tumor model P388 Leukemia (intraperitoneal) in CD2F1 (CDF1) mice
Conditions: endpoint: median survival time, higher = longer survival
Procedure, shortened: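 Mice carrying the transplanted tumor received test compound or vehicle. Survival was recorded in each group, and the value is the treated-group measurement divided by that of the vehicle-treated control group.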

[1] = dose: 100.0 mg/kg/injection, schedule: Q01DX001 (ip), vehicle: saline
[2] = dose: 200.0 mg/kg/injection, schedule: Q01DX001 (ip), vehicle: saline
[3] = dose: 400.0 mg/kg/injection, schedule: Q01DX001 (ip), vehicle: saline
[4] = dose: 50.0 mg/kg/injection, schedule: Q01DX009 (ip), vehicle: saline with Tween-80
[5] = dose: 100.0 mg/kg/injection, schedule: Q01DX009 (ip), vehicle: saline with Tween-80
[6] = dose: 60.0 mg/kg/injection, schedule: Q01DX005 (ip), vehicle: Klucel (hydroxypropylcellulose) (HPC)
[7] = dose: 120.0 mg/kg/injection, schedule: Q01DX005 (ip), vehicle: Klucel (hydroxypropylcellulose) (HPC)
[8] = dose: 240.0 mg/kg/injection, schedule: Q01DX005 (ip), vehicle: Klucel (hydroxypropylcellulose) (HPC)
[9] = dose: 200.0 mg/kg/injection, schedule: Q01DX009 (ip), vehicle: saline with Tween-80

Measured: T/C

OCC1OC(OCC2OC(OC3(CO)OC(CO)C(O)C3O)C(O)C(O)C2O)C(O)C(O)C1O (configuration not stated)
inactive: [1] 102 % of control | [2] 103 % of control | [3] 93 % of control

COc1ccc(C(Nc2ccc([N+](=O)[O-])cc2)P(=O)(c2ccccc2)c2ccccc2)cc1 (configuration not stated)
inactive: dose: 60.0 mg/kg/injection, schedule: Q01DX005 (ip), vehicle: saline with Tween-80 99 % of control | dose: 120.0 mg/kg/injection, schedule: Q01DX005 (ip), vehicle: saline with Tween-80 92 % of control | dose: 240.0 mg/kg/injection, schedule: Q01DX005 (ip), vehicle: saline with Tween-80 88 % of control

COc1cc2c(cc1OC)C1Cc3ccc4cc(OC)c(OC)cc4c3CN1CC2 (configuration not stated)
inactive: dose: 25.0 mg/kg/injection, schedule: Q01DX009 (ip), vehicle: saline with Tween-80 90 % of control | [4] 100 % of control | [5] 95 % of control

CN(C)c1ccc(P(=O)(O)O)cc1
inactive: dose: 50.0 mg/kg/injection, schedule: Q01DX005 (ip), vehicle: saline with Tween-80 96 % of control | dose: 100.0 mg/kg/injection, schedule: Q01DX005 (ip), vehicle: saline with Tween-80 99 % of control | dose: 200.0 mg/kg/injection, schedule: Q01DX005 (ip), vehicle: saline with Tween-80 91 % of control

O=[N+]([O-])c1ccc(N=Nc2ccc(N(CCCl)CCCl)cc2)c([N+](=O)[O-])c1
inactive: dose: 100.0 mg/kg/injection, schedule: Q01DX001 (ip), vehicle: Klucel (hydroxypropylcellulose) (HPC) 106 % of control | dose: 200.0 mg/kg/injection, schedule: Q01DX001 (ip), vehicle: Klucel (hydroxypropylcellulose) (HPC) 108 % of control | dose: 400.0 mg/kg/injection, schedule: Q01DX001 (ip), vehicle: Klucel (hydroxypropylcellulose) (HPC) 103 % of control

CC1(C(=O)O)C2C=CC3(CN(c4ccccc4)C(=O)C31c1ccccc1)O2 (configuration not stated)
inactive: [6] 89 % of control | [7] 100 % of control | [8] 102 % of control

O=C1C(N2CC2)=C(N2CC2)C(=O)C(N2CC2)=C1N1CC1
inactive: dose: 1.8 micrograms/kg/injection, schedule: Q01DX009 (ip), vehicle: saline 110 % of control | dose: 2.7 micrograms/kg/injection, schedule: Q01DX009 (ip), vehicle: saline 115 % of control | dose: 4.0 micrograms/kg/injection, schedule: Q01DX009 (ip), vehicle: saline 112 % of control

NC1=C(O)C(=O)C(c2ccc(C3OC(N)=C(O)C3=O)cc2)O1 (configuration not stated)
inactive: [6] 101 % of control | [7] 104 % of control | [8] 96 % of control

C=C=C(COC(C)=O)ON1CCOCC1
inactive: [1] 99 % of control | [2] 103 % of control | [3] 100 % of control

CC1=NN(C(=O)c2ccncc2)C(=O)C1N=Nc1ccc([N+](=O)[O-])cc1Cl (configuration not stated)
inactive: [4] 99 % of control | [5] 96 % of control | [9] 104 % of control

Cc1ccc(N)c(N)c1
inactive: [5] 99 % of control | dose: 100.0 mg/kg/injection, schedule: Q01DX009 (ip), vehicle: saline 107 % of control | [9] 109 % of control | dose: 400.0 mg/kg/injection, schedule: Q01DX009 (ip), vehicle: saline with Tween-80 123 % of control

CCNC(=O)OCc1ccco1
inactive: dose: 12.5 mg/kg/injection, schedule: Q01DX009 (ip), vehicle: saline 92 % of control | dose: 25.0 mg/kg/injection, schedule: Q01DX009 (ip), vehicle: saline 92 % of control | [4] 107 % of control

c1ccc(OCCC[P+](c2ccccc2)(c2ccccc2)c2ccccc2)cc1
inactive: dose: 0.7 mg/kg/injection, schedule: Q01DX010 (ip), vehicle: carboxymethylcellulose (CMC) 120 % of control | dose: 1.5 mg/kg/injection, schedule: Q01DX010 (ip), vehicle: carboxymethylcellulose (CMC) 110 % of control | dose: 3.0 mg/kg/injection, schedule: Q01DX010 (ip), vehicle: carboxymethylcellulose (CMC) 120 % of control | dose: 4.1 mg/kg/injection, schedule: Q01DX009 (ip), vehicle: saline sonified 113 % of control | dose: 6.25 mg/kg/injection, schedule: Q01DX009 (ip), vehicle: saline sonified 118 % of control
